This is an account of results in ChEMBL document CHEMBL4507319 (2021).

In assay [1] the target is GABA-A receptor; anion channel (Rattus norvegicus) (UniProt O09028+P15431+P18506+P18508+P19969+P20236+P23574+P23576+P28471+P28473+P30191+P62813+P63079+P63138+Q91ZM7+Q9ES14). The note with it: Compound concentration 10.0 uM.
The target of assay [2] is T1, Serine/threonine-protein kinase Sgk3 (Homo sapiens) (UniProt Q96BR1).
T1 sequence (whole entry): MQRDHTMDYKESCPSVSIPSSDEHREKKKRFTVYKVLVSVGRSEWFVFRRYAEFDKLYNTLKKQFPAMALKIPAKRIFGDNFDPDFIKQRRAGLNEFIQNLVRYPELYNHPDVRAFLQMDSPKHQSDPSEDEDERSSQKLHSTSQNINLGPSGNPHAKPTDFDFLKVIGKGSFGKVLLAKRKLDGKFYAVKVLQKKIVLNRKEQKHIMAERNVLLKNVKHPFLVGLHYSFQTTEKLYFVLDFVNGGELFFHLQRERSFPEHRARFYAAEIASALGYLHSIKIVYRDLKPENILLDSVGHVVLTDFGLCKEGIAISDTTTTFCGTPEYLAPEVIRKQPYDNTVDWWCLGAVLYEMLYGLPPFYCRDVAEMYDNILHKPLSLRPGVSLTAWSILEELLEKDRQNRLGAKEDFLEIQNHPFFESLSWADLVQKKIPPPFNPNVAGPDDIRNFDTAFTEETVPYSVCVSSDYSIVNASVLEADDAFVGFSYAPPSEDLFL
Description: SGK3(h) Eurofins kinase panel. The note with it: Compound concentration 1.0 uM.

Assay [3] addresses Mitogen-activated protein kinase 1 (Homo sapiens) (UniProt P28482). Description: MAPK2(h) Eurofins kinase panel. Particulars: Compound concentration 1.0 uM.
The target of assay [4] is T2, Serine/threonine-protein kinase Nek9 (Homo sapiens) (UniProt Q8TD19).
T2 sequence (whole entry): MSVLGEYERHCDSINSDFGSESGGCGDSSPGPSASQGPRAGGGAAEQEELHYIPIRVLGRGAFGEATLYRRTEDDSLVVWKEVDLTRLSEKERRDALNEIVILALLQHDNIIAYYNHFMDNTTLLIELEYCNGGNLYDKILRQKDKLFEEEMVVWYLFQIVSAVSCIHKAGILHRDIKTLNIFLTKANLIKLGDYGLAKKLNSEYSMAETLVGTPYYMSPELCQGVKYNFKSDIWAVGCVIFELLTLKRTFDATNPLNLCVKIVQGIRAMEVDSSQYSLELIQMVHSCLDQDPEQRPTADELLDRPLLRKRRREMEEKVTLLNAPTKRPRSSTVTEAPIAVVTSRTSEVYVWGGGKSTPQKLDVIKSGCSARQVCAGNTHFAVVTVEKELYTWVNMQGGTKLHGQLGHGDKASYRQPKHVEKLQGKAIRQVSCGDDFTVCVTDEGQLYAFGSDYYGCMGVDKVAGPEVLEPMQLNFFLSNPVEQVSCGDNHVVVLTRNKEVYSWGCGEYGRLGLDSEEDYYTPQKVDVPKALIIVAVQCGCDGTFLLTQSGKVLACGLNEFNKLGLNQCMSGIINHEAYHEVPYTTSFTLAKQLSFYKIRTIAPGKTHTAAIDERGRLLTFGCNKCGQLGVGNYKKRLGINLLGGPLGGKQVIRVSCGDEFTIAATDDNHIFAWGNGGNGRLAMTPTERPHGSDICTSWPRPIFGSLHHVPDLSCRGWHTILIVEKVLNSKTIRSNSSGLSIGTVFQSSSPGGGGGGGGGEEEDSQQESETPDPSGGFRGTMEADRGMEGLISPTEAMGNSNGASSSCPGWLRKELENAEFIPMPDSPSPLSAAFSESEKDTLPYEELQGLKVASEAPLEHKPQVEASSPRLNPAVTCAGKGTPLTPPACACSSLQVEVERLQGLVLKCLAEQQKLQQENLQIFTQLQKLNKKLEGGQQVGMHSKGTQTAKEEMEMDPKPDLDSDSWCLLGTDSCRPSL
Description: NEK9(h) Eurofins kinase panel. The note with it: Compound concentration 1.0 uM.

In assay [5] the target is Ribosomal protein S6 kinase alpha-1 (Homo sapiens, UniProt Q15418). The note with it: Compound concentration 1.0 uM.
The subject of a further assay is A2780. Description: A2780 cell line Proliferation assay. The assay is classed as functional, Homo sapiens. The note with it: time 3 day.
For assay [6], the target named is Hepatocyte growth factor receptor (Homo sapiens) (UniProt P08581). Particulars: Compound concentration 1.0 uM.
For assay [7], the target named is CDK9/cyclin T1 (Homo sapiens) (UniProt O60563+P50750). Description: CDK9/cyclin T1(h) Eurofins kinase panel. The assay is classed as protein-complex assay. Particulars: Compound concentration 1.0 uM.
Assay [8] has as its target T3, Discoidin domain-containing receptor 2 (Homo sapiens) (UniProt Q16832).
T3 sequence (whole entry): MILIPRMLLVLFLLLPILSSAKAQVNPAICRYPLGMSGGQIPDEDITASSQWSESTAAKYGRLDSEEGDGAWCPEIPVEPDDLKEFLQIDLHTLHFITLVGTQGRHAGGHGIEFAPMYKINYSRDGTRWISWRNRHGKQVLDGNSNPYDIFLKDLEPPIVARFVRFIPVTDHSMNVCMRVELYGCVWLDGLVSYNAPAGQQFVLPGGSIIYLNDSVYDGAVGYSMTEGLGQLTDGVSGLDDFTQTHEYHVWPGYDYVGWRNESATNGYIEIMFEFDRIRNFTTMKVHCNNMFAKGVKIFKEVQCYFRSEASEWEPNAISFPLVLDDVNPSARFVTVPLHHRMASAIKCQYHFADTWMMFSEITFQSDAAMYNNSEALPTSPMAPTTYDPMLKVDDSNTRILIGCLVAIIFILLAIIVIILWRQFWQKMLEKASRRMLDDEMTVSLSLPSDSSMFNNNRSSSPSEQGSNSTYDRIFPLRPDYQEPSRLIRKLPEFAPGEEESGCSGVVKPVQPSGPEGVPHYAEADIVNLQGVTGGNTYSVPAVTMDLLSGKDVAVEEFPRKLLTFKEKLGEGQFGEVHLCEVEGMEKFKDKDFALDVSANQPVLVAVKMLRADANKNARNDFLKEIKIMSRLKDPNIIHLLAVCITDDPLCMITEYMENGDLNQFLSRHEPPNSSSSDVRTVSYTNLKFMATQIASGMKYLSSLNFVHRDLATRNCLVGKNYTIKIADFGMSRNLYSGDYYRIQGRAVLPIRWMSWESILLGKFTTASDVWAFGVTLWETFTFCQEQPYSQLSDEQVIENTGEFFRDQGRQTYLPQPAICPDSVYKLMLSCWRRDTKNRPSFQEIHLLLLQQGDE
Briefly: DDR2(h) Eurofins kinase panel. The note with it: Compound concentration 1.0 uM.

Chain of Ribosomal protein S6 kinase alpha-1 (Q15418 whole entry): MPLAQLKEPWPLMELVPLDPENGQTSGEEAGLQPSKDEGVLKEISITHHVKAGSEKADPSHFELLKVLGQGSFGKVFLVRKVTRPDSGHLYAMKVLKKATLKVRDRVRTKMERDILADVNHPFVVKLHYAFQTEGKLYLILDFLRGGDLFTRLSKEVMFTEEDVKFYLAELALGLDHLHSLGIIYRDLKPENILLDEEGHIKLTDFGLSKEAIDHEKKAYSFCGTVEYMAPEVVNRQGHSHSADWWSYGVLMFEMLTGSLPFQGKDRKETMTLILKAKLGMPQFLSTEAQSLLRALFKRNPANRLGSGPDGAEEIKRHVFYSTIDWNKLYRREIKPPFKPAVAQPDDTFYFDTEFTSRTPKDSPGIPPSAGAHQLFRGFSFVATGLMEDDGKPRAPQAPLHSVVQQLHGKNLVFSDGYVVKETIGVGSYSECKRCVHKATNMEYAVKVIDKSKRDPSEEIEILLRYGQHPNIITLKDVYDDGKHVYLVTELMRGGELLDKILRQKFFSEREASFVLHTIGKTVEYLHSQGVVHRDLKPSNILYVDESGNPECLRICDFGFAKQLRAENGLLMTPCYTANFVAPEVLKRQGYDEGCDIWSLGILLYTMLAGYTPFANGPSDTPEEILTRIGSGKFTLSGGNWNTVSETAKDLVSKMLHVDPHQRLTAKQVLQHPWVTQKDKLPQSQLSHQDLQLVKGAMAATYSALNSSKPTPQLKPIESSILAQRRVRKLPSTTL
Chain of Mitogen-activated protein kinase 1 (Homo sapiens) (P28482 whole entry): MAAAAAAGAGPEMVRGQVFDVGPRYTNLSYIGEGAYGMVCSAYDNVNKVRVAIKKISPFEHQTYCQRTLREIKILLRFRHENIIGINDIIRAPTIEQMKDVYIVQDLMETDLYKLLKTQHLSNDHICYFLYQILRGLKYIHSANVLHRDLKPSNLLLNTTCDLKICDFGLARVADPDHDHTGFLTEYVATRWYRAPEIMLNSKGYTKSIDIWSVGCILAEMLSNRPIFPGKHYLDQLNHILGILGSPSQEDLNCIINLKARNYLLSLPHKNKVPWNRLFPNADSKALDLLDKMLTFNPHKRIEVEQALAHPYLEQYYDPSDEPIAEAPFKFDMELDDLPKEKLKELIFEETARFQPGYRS
Chain of Hepatocyte growth factor receptor (Homo sapiens) (P08581 whole entry): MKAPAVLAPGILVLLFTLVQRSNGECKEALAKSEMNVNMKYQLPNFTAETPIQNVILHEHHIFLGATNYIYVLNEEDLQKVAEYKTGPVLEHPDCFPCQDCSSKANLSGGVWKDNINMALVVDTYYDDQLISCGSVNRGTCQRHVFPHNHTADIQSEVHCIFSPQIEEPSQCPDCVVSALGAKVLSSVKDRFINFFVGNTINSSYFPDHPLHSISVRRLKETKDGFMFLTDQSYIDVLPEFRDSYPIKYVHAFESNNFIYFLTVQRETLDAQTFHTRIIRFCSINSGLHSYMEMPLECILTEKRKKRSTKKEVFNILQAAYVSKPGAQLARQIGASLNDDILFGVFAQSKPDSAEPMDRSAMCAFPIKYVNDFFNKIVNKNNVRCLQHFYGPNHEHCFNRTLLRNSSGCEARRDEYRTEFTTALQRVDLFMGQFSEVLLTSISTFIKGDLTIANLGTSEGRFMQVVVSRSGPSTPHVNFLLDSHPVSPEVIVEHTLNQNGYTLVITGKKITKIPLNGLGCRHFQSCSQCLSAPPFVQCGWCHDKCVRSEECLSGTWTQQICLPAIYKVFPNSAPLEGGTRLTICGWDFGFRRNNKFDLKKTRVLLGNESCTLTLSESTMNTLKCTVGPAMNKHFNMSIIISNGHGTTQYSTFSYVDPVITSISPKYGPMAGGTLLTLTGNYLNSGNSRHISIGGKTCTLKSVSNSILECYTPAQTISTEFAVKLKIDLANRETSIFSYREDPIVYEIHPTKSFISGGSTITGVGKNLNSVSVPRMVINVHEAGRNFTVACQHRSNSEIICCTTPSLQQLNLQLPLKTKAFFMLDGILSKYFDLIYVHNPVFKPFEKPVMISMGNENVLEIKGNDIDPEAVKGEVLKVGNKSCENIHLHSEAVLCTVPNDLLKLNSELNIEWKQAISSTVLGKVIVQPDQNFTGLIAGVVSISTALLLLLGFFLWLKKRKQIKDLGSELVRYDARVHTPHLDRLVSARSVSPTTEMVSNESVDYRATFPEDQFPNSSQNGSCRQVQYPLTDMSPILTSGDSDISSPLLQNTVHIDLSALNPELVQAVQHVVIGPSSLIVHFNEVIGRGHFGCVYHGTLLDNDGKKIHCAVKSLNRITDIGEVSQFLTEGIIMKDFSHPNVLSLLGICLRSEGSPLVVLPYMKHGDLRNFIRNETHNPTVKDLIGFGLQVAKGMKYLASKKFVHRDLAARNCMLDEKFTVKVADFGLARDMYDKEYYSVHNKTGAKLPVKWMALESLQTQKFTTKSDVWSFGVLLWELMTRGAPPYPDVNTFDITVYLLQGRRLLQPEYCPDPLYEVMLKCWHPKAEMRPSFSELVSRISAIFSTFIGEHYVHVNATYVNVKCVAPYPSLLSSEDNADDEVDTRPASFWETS

On to `CC1=C(C#N)C(c2ccc3c(c2)c(NC(=O)c2ccccc2C)nn3C)C(C#N)=C(C)N1` [BAY-974], for which the inhibition in assay [1] is -1.23%.
`CCc1ccccc1C(=O)Nc1n[nH]c2c(C)c(F)c(C3C(C#N)=C(C)N(C)C(C)=C3C#N)cc12` [BAY-3827]: the % residual kinase activity in [2] is 95%; in [3] it was 102%; in assay [4], 47%; in [5] it was 7%; in [6], 1%; in [7] it was 91%. Besides, in assay [8], the % residual kinase activity is 92%. For the same compound, the “Cell Proliferation IC50” value in the assay on A2780 was greater than 33 µM.

The term inhibition denotes the relative decrease from the control value, in per cent.
